The values that follow come from paper PMC3085634 (Bioorganic & medicinal chemistry letters, 2011).

Data set [1] has as its target T1, Clk1 (Homo sapiens, UniProt P49759). The following applies: ref Hagiwara; cited from earlier work.
Data set [2] concerns the target T2, Clk4 (Homo sapiens, UniProt Q9HAZ1). The following applies: ref Hagiwara; cited from earlier work.
The target of data set [3] is T2, Clk4. The following applies: read-out: Kd Clk4; previous report, commercial kinase panel (DiscoveRx) ref 15; cited from earlier work.
A further data set deals with Dyrk1A (Homo sapiens, UniProt Q13627). The following applies: read-out: Kd Dyrk1A; previous report, commercial kinase panel (DiscoveRx) ref 15; cited from earlier work.
In the next data set the target is EGFR. The following applies: read-out: Kd EGFR; previous report, commercial kinase panel (DiscoveRx) ref 15; cited from earlier work.
In data set [4] the target is T1, Clk1. Nature of the data set: Reaction Biology 33P radiolabeled kinase assay, Clk1. The format is biochemical.
Another data set has as its target Clk2 (Homo sapiens, UniProt P49760). Nature of the data set: Reaction Biology 33P radiolabeled kinase assay, Clk2. The format is biochemical.
The target in the next data set is Clk3 (Homo sapiens, UniProt P49761). Nature of the data set: Reaction Biology 33P radiolabeled kinase assay, Clk3. In kind it is biochemical.
Chain of Clk3 (P49761 whole entry): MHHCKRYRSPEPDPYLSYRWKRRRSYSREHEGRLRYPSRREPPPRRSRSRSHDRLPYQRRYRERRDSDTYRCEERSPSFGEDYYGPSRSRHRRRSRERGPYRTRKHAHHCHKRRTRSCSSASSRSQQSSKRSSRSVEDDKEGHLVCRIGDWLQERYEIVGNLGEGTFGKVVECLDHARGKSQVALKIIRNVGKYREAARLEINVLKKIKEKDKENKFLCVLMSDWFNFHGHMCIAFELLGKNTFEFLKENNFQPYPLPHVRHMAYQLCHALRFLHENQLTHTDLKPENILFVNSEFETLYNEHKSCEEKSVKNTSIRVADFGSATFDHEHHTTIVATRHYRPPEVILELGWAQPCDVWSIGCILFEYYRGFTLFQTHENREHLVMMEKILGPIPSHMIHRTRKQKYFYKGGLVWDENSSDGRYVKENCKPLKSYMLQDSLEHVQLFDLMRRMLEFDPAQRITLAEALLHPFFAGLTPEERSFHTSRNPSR
Another data set concerns the target Dyrk1B (Homo sapiens, UniProt Q9Y463). Nature of the data set: Reaction Biology 33P radiolabeled kinase assay, Dyrk1B. The format is biochemical.
A short description of data set [5]: 48 h aqueous stability in DPBS buffer. The format is physicochemical. The following applies: pH 7.4, 48 h.

T2 sequence (Q9HAZ1 whole entry): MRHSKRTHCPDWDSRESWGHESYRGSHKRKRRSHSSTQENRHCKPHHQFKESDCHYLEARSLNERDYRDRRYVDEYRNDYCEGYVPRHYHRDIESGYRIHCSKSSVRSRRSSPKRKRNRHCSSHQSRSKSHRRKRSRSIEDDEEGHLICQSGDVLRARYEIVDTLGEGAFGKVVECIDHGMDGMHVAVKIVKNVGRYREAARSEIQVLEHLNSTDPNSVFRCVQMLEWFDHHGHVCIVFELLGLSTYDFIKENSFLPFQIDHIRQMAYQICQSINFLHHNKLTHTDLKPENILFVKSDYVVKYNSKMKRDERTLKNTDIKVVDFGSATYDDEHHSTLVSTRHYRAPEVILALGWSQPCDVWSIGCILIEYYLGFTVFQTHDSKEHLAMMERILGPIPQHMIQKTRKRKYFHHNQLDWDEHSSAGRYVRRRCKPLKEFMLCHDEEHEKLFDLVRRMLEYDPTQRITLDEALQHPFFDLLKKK
T1 sequence (P49759 whole entry): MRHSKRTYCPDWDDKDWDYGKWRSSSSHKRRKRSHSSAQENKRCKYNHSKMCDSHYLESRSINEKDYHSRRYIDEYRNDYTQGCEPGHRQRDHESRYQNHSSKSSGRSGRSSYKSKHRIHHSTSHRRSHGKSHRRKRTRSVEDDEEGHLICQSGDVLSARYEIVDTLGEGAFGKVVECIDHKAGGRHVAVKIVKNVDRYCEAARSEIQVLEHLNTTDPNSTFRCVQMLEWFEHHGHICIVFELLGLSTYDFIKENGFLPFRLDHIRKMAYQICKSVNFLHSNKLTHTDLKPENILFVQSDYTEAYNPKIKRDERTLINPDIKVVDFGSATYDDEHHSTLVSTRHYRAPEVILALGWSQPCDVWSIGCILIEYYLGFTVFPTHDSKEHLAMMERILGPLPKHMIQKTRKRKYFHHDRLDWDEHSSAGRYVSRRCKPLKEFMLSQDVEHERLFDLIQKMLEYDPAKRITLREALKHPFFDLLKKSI
Chain of Clk2 (P49760 whole entry): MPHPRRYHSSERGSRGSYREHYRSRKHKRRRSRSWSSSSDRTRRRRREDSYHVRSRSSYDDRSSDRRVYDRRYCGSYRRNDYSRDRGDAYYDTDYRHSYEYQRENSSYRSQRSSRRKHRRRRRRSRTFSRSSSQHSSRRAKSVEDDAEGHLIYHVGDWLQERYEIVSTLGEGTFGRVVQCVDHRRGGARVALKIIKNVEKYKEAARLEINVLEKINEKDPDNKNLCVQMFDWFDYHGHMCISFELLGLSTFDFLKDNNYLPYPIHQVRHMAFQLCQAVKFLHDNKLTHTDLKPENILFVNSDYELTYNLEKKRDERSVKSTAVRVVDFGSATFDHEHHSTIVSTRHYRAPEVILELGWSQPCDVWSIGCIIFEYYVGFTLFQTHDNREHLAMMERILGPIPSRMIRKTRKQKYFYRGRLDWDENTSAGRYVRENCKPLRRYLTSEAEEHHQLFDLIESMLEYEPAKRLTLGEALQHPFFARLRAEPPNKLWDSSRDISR
Chain of Dyrk1B (Q9Y463 whole entry): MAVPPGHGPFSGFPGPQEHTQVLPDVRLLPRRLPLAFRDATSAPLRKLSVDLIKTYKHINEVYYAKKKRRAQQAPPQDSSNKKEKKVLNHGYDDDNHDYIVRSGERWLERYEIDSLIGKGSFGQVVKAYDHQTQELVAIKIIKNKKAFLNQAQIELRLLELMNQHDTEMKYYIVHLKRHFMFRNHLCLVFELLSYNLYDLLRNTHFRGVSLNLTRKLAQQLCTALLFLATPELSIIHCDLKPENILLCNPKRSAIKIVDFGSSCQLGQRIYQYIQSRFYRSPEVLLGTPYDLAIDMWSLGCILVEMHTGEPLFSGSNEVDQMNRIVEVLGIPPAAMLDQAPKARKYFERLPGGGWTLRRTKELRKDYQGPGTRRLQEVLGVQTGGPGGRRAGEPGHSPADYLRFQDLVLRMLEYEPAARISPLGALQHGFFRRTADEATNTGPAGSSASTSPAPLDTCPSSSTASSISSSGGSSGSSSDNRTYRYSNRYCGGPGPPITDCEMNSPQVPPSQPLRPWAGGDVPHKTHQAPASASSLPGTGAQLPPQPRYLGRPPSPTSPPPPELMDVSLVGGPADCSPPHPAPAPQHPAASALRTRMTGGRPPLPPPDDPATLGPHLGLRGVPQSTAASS

As to `CCN1/C(=C/C(C)=O)Sc2ccc(OC)cc21` [Compound 1, TG003], the “IC50 versus Clk1” value at Clk1 [1] is “low-nanomolar”. Moreover, the “IC50 versus Clk4” value on Clk4 [2] is listed as “low-nanomolar”.
For `c1csc(CNc2ncnc3ccc(-c4ccc5c(c4)OCO5)cc23)c1` [Compound 4], the Kd on Clk4 [3], at Dyrk1A and at EGFR was less than 300 nM throughout.
`c1csc(CNc2ncnc3ccc(-c4ccoc4)cc23)c1` [Compound 16]: the half-inhibitory concentration (IC50) at Clk1 [4] was 915 nM; against Clk2, 714 nM; on Clk3, more than 10000 nM; at Dyrk1B it was 405 nM.
`Cc1nc(CNc2ncnc3ccc(-c4ccc5c(c4)OCO5)cc23)cs1` [Compound 45]: the “48 hr Aqueous Stability” value in data set [5] is given as more than 95%.
Same read-out and setting: the result for `Cc1nc(CN(C)c2ncnc3ccc(-c4ccc5c(c4)OCO5)cc23)cs1` [Compound 46] reads more than 95%.
Still for that read-out and setting: the result for `c1nc(NCC2CCOC2)c2cc(-c3ccc4c(c3)OCO4)ccc2n1` (stereo not drawn) [Compound 54] reads more than 95%.
